# Measurements taken from Sander's compilation of Henry's law constants (doi:10.1021/jf001510f).
# Experiment: Henry solubility constant Hcp at 310 K (mol/(m3 Pa))
# Conditions: reference: van Ruth et al. (2001)
row,Henry solubility constant Hcp at 310 K,SMILES
1,0.23,CCCC(C)O (stereo not given) [2-pentanol]
2,0.32,CC(C)CCO [3-methyl-1-butanol]
3,0.0049,CSC [dimethyl sulfide]
4,0.016,CCCC(=O)OCC [ethyl butanoate]
5,0.03,CCOC(C)=O [ethyl ethanoate]
6,0.011,CCCCCCC=O [heptanal]
7,0.0088,CCCCCCCC=O [octanal]
8,0.018,CCCOC(C)=O [propyl ethanoate]

# Further lines, the molecule ahead of its results:
row,SMILES,Henry solubility constant Hcp at 310 K
1,CCCCCCO [1-hexanol],0.16
2,CCCO [1-propanol],0.65
3,CCCCCCCCC(C)=O [2-decanone],0.015
4,CCCCCC(C)=O [2-heptanone],0.025
5,CCCCCCCC(C)O (stereo not given) [2-nonanol],0.069
6,CCCCCCC(C)=O [2-octanone],0.018
7,CCCCOC(C)=O [butyl ethanoate],0.017
